Key:
[1] = system: immature embryos of Stine inbred 963; experiment: Type II callus initiation from cultured immature embryos (embryos responding); type: cell-based, Zea mays L.; conditions: sugar at 10 g/l in combination with 20 g/l sucrose, N6A medium
Protocol: Plants of the elite corn inbred Stine 963 were grown under controlled conditions, either in a grow room or in a greenhouse. Plants were exposed throughout growth to a 16 h photoperiod with a daytime temperature of around 30° C. and a nighttime temperature of around 25° C. Plants were selfed and after approximately 10 days ears were harvested. At this time the immature embryos were on average between 1.0 and 2.0 mm in length. Usually the ears were then placed at 4° for two days prior to immature embryo excision. The response on standard […] media (Table 1) for inducing Type II callus was variable and appeared to be dependent on the physiological state of the donor plant. The frequency of Type II callus ranged from 0% up to 95%, with an average of around 40%. Immature embryos were excised with a view to using them as targets for Agrobacterium-mediated DNA delivery. For this work a reproducible and high frequency response is required and improvement in these aspects was therefore desirable. The protocol used for introduction of DNA mediated by Agrobacterium was based on that described by Hei and Komari (1997). The co-cultivation medium in this protocol (LSAS-Table 1) contains glucose, intended presumably as a carbon source for Agrobacterium. After close observation of immature embryos on LSAS medium it was thought worthwhile to check for the effects of glucose on culture initiation and subsequent development. 10 g/l of glucose was therefore added to […] medium. This medium was subsequently referred to as […] (Table 1). […] Various other sugars were tested in this regard (see Table 3) and some are capable of supporting an increased rate of Type II callus initiation (especially maltose, lactose, sorbitol and mannitol). None of those tested, however, were as efficient as glucose in stimulating Type II callus formation on […] medium. All sugars were tested at 10 g/l in combination with 20 g/l sucrose.

Agrobacterium = experiment: Control of Agrobacterium growth on culture media after co-cultivation; type: cell-based, Agrobacterium tumefaciens; conditions: for control of Agrobacterium growth: first 19 day culture period after co-cultivation
Description: Agrobacterium strain LBA 4404 harboring “super binary” vectors as described in U.S. patent Hei and Komari (1997) was used in corn transformation experiments. […] The gus expression cassette contains an intron in the N-terminal region of the gus gene which prevents expression in bacteria, but upon expression in plant cells the intron is spliced out and Gus activity is achieved (Ohta et al., 1990; Ishida et al., 1996). Agrobacterium containing “super binary” vectors were stored in glycerol stocks using acidified glycerol. Glycerol was acidified by adding 15 drops of 1 M HCl to one liter of glycerol (Sigma G-9012). Final glycerol concentration of stocks was 15 to 20% and stocks were frozen at minus 86° C. When glycerol stocks were used as the source for transformation experiments, Agrobacterium was made ready for transformation experiments by removing a few flakes of frozen culture with a sterile loop, streaking it out on YP medium (5 g/l yeast extract, 10 g/l peptone, 5 g/l NaCl, and 15 g/l agar) containing 50 mg/l spectinomycin, and incubating it for one or two days at 28° C. When glycerol stocks were not used as the source, Agrobacterium maintained on YP plus spectinomycin at 4° C. was used to initiate new cultures of Agrobacterium that were grown as described above.
Therefore, a lower level of cefotaxime was tested in the presence of silver nitrate to see if embryo response and subsequent clone recovery could be improved. […] The clones were then transferred to DN62B (Table 4) for growth and further selection prior to regeneration.

Compound	Embryo Response [1] [%]	further results
O=C[C@H](O)[C@@H](O)[C@H](O[C@@H]1O[C@H](CO)[C@@H](O)[C@H](O)[C@H]1O)[C@H](O)CO [Cellobiose]	<50	–
O=C(CO)[C@@H](O)[C@H](O)[C@H](O)CO [Fructose]	<50	–
O=C[C@H](O)[C@@H](O)[C@@H](O)[C@H](O)CO [Galactose]	<30	–
OC[C@H]1O[C@H](OCC2O[C@@H](O)[C@H](O)[C@@H](O)[C@@H]2O)[C@H](O)[C@@H](O)[C@H]1O (stereo partly shown) [Mellibiose]	<50	–
OC[C@H]1O[C@H](OC[C@H]2O[C@H](O[C@]3(CO)O[C@H](CO)[C@@H](O)[C@@H]3O)[C@H](O)[C@@H](O)[C@@H]2O)[C@H](O)[C@@H](O)[C@H]1O [Raffinose]	<50	–
OC[C@H]1O[C@H](O[C@H]2O[C@H](CO)[C@@H](O)[C@H](O)[C@H]2O)[C@H](O)[C@@H](O)[C@@H]1O [Trehalose]	<50	–
O=C[C@H](O)[C@@H](O)[C@H](O)CO [Xylose]	<50	–
CO/N=C(\C(=O)N[C@@H]1C(=O)N2C(C(=O)O)=C(COC(C)=O)CS[C@H]12)c1csc(N)n1 [cefotaxime]	–	control of Agrobacterium growth (Agrobacterium; 10 mg/l cefotaxime in presence of silver nitrate): not; control of Agrobacterium growth (Agrobacterium; 50 mg/l cefotaxime in presence of silver nitrate): Adequate control of Agrobacterium growth
O=[N+]([O-])[O-].[Ag+] [silver nitrate]	–	Agrobacterium growth (Agrobacterium; media containing silver nitrate): inhibited

— patent US6420630B1, “Methods for tissue culturing and transforming elite inbreds of Zea mays L” (Stine Biotechnology, priority 1998, dated 2002)
